The molecules below were run against T1, MMP-13 (Homo sapiens, UniProt P45452) (assay: In vitro MMP inhibition, Ki determination (fluorogenic substrate II)). Details: value not in parenthesis; read-out: MMP-13 Ki.
T1 construct: made in house; host or cells: baculovirus / insect cells
Type: biochemical
Summary of the method: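 Ki determined with human recombinant MMP-13, baculovirus-expressed as proenzyme and activated with APMA. Fluorogenic MCA/Dpa substrate II at 4 μM (at or below Km) with low enzyme in Tris buffer pH 7.5 with CaCl2. Incubation was 1 h at room temperature, with fluorescence read at 330/420 nm.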

Ki [nM] | SMILES
0.44 | CCCCc1ccc(N2CCN(S(=O)(=O)C3(C(=O)NO)CCN(c4cccnc4)CC3)CC2)nc1 [Example 96]
0.68 | CCCCCc1ccc(N2CCN(S(=O)(=O)C3(C(=O)NO)CCN(c4ncccn4)CC3)CC2)nc1 [Example 95]
1.64 | CCCCc1ccc(N2CCN(S(=O)(=O)C3(C(=O)NO)CCOCC3)CC2)c(F)c1 [Example 91]
0.85 | O=C(NO)C1(S(=O)(=O)N2CCN(c3ccc(COCC(F)(F)F)cc3)CC2)CCOCC1 [Example 72]
0.3 | CCCCc1ccc(N2CCN(S(=O)(=O)C3(C(=O)NO)CCN(c4ncccn4)CC3)CC2)nc1 [Example 99]
0.048 | O=C(NO)C1(S(=O)(=O)N2CCN(c3ccc(OCCCC(F)(F)F)cn3)CC2)CCOCC1 [Example 83]
0.4 | O=C(NO)C1(S(=O)(=O)N2CCN(c3ccc(-c4ccccc4)cc3)CC2)CCOCC1 [Example 76]
6.62 | CC(C)COc1ccc(N2CCN(S(=O)(=O)C3(C(=O)NO)CCOCC3)CC2)cc1Cl [Example 79]
18.4 | CCCCOc1ccc(N2CCN(S(=O)(=O)C3(C(=O)NO)CCN(c4ccc(Cl)c(Cl)c4)CC3)CC2)cc1 [Example 250]
7.49 | O=C(NO)C1(S(=O)(=O)N2CCN(c3cccc(C(F)(F)F)c3)CC2)CCOCC1 [Example 82]
3.94 | CCCCc1ccc(C2CCN(S(=O)(=O)C3(C(=O)NO)CCN(CCOC)CC3)CC2)s1 [Example 55]
0.25 | CCCCOc1ccc(N2CCN(S(=O)(=O)C3(C(=O)NO)Cc4ccccc4C3)CC2)nc1 [Example 85]
0.39 | CCCCOc1ccc(N2CCN(S(=O)(=O)C3(C(=O)NO)CCOCC3)CC2)c(F)c1 [Example 90]
1.91 | CCCCOc1ccc(N2CCN(S(=O)(=O)C3(C(=O)NO)CCN(C(C)(C)C)CC3)CC2)c(F)c1 [Example 84]
0.17 | O=C(NO)C1(S(=O)(=O)N2CCN(c3ccc(OCCCCF)cc3)CC2)CCOCC1 [Example 89]
0.18 | COCCN1CCC(C(=O)NO)(S(=O)(=O)N2CCN(c3ccc(OCCCCF)cc3)CC2)CC1 [Example 88]
0.06 | O=C(NO)C1(S(=O)(=O)N2CCN(c3ccc(OCc4ccccc4)cn3)CC2)CCOCC1 [Example 74]
0.38 | C#CCOC(=O)N1CCC(C(=O)NO)(S(=O)(=O)N2CCN(c3ccc(OCCCC)cc3)CC2)CC1 [Example 98]
0.84 | O=C(NO)C1(S(=O)(=O)N2CCN(c3ccc(CCC(F)(F)F)cc3)CC2)CCOCC1 [Example 77]

Same assay, conditions: value outside parentheses; read-out: MMP-13 Ki

Ki [nM] | SMILES
12.9 | CCCCOc1ccc(N2CCN(S(=O)(=O)C3(C(=O)NO)CCN(c4ccc(Cl)cc4)CC3)CC2)cc1 [Example 251]
0.39 | CCCCOc1ccc(N2CCN(S(=O)(=O)C3(C(=O)NO)CCN(C(=O)c4ccccc4)CC3)CC2)cc1 [Example 255]
1.02 | CCCCOc1ccc(N2CCN(S(=O)(=O)C3(C(=O)NO)CCN(C)CC3)CC2)cc1 [Example 280]
0.702 | CCCCOc1ccc(N2CCN(S(=O)(=O)C3(C(=O)NO)CCN(CC4CC4)CC3)CC2)cc1 [Example 298]
0.25 | CCCCOc1ccc(N2CCN(S(=O)(=O)C3(C(=O)NO)CCN(C=O)CC3)CC2)cc1 [Example 269]
0.64 | CCCCOc1ccc(N2CCN(S(=O)(=O)C3(C(=O)NO)CCN(C(=O)C(C)(C)C)CC3)CC2)cc1 [Example 267]
0.339 | CCCCc1ccc(N2CCN(S(=O)(=O)C3(C(=O)NO)CCN(CCOC)CC3)CC2)nc1 [Example 270]
0.484 | CCCCOc1ccc(N2CCN(S(=O)(=O)C3(C(=O)NO)CCN(C(=O)CC)CC3)CC2)cc1 [Example 274]
3.33 | COCCN1CCC(C(=O)NO)(S(=O)(=O)N2CCN(c3ccc(Oc4ccccc4)cc3)CC2)CC1 [Example 287]
0.46 | C#CCN1CCC(C(=O)NO)(S(=O)(=O)N2CCN(c3ccc(OCCCC)cc3)CC2)CC1 [Example 303]
0.654 | CCCCc1ccc(C2CCN(S(=O)(=O)C3(C(=O)NO)CCOCC3)CC2)nc1 [Example 307]
0.308 | CCCCOc1ccc(N2CCN(S(=O)(=O)C3(C(=O)NO)CCN(C(=O)c4cccnc4)CC3)CC2)cc1 [Example 266]
0.12 | CCCCOc1ccc(N2CCN(S(=O)(=O)C3(C(=O)NO)CCN(CCOC)CC3)CC2)c(F)c1 [Example 284]
9.22 | CCCCOc1ccc(N2CCN(S(=O)(=O)C3(C(=O)NO)CCN(c4ccc(C)cc4)CC3)CC2)cc1F [Example 296]
5.97 | CCCCOc1ccc(N2CCN(S(=O)(=O)C3(C(=O)NO)CCNCC3)CC2)cc1F [Example 286]
0.359 | CCCCOc1ccc(N2CCN(S(=O)(=O)C3(C(=O)NO)CCN(C(=O)c4ccncc4)CC3)CC2)cc1 [Example 259]

Ki [nM] | SMILES
0.23 | CCCCOc1ccc(N2CCN(S(=O)(=O)C3(C(=O)NO)CCN(C4CC4)CC3)CC2)cc1 [Example 301]
0.33 | CCCCCc1ccc(N2CCN(S(=O)(=O)C3(C(=O)NO)CCN(C4CC4)CC3)CC2)cc1 [Example 272]
0.048 | CCCCOc1ccc(N2CCN(S(=O)(=O)C3(C(=O)NO)CCN(c4ccccc4)CC3)CC2)cc1 [Example 264]
0.458 | CCc1ccc(N2CCN(S(=O)(=O)C3(C(=O)NO)CCCC3)CC2)nc1 [Example 261]
0.313 | CCCCOc1ccc(N2CCN(S(=O)(=O)C3(C(=O)NO)CCN(Cc4cccnc4)CC3)CC2)cc1F [Example 293]
42.7 | CS(=O)(=O)c1ccc(N2CCN(S(=O)(=O)C3(C(=O)NO)CCOCC3)CC2)cc1 [Example 300]
4.26 | O=C(NO)C1(S(=O)(=O)N2CCC(c3ccc(-c4ccc(F)cc4F)cn3)CC2)CCOCC1 [Example 308]
0.268 | COCCN1CCC(C(=O)NO)(S(=O)(=O)N2CCC(c3ccc(CCCC(F)(F)F)cc3)CC2)CC1 [Example 310]
0.313 | CCCCOc1ccc(N2CCN(S(=O)(=O)C3(C(=O)NO)CCN(C(=O)C(C)C)CC3)CC2)cc1 [Example 273]
1.56 | COCCN1CCC(C(=O)NO)(S(=O)(=O)N2CCC(c3ncc(CC(C)C)s3)CC2)CC1 [Example 311]
0.355 | COCCN1CCC(C(=O)NO)(S(=O)(=O)N2CCC(c3ccc(CCC(F)(F)F)cc3)CC2)CC1 [Example 309]
0.32 | CC(C)CCOc1ccc(N2CCN(S(=O)(=O)C3(C(=O)NO)CCOCC3)CC2)cc1 [Example 279]
0.311 | CCCCOc1ccc(N2CCN(S(=O)(=O)C3(C(=O)NO)CCN(C(=O)COC)CC3)CC2)cc1 [Example 268]
0.19 | CCCCOc1ccc(N2CCN(S(=O)(=O)C3(C(=O)NO)CCN(c4ccc(O)nn4)CC3)CC2)cc1 [Example 283]
12.9 | CCCCOc1ccc(N2CCN(S(=O)(=O)C3(C(=O)NO)CCN(c4ccc(C(F)(F)F)cn4)CC3)CC2)cc1 [Example 257]

— patent US20050209278A1, “Piperidinyl- and piperazinyl-sulfonylmethyl hydroxamic acids and their use as protease inhibitors” (priority 2002, published 2005)
